Values of other authors as cited in patent US12527793B2, “Pharmaceutical compositions” (Shenzhen Pharmacin Co., Ltd., priority 2020, dated 2026).

Conditions: source footnote 1: Pallicer et al., ADMET & DMPK 2(2) (2014) 107-114

Row | SMILES | Experimental log P
1 | OCCOCCN1CCN(C2=Nc3ccccc3Sc3ccccc32)CC1 [Quetiapine] | 3.13^1
2 | CC(C)(Oc1ccc(Cl)cc1)C(=O)O [Clofibric acid] | 2.57^1
3 | C=C[C@H]1C[N@@]2CC[C@H]1C[C@H]2[C@H](O)c1ccnc2ccc(OC)cc12 [Quinine] | 2.64^1
4 | CN(C)CCC(c1ccc(Cl)cc1)c1ccccn1 (stereo not shown) [Chlorphenamine] | 3.17^1
5 | O=C(CCCN1CCC(O)(c2ccc(Cl)cc2)CC1)c1ccc(F)cc1 [Haloperidol] | 3.82^1
6 | O=C1C[C@@H](c2ccc(O)cc2)Oc2cc(O)cc(O)c21 [Naringenin] | 2.52^1
7 | O=c1cc(-c2ccc(O)cc2)oc2cc(O)cc(O)c12 [Apigenin] | 3.02^1
8 | O=C(O)CCC(=O)c1ccc(-c2ccccc2)cc1 [Fenbufen] | 3.2^1
9 | CNCC[C@H](Oc1cccc2ccccc12)c1cccs1 [Duloxetine] | 4.54^1
10 | CN(CCOc1ccc(CC2SC(=O)NC2=O)cc1)c1ccccn1 (stereo not shown) [Rosiglitazone] | 3.1^1
11 | CCN(CC)CCN1C(=O)CN=C(c2ccccc2F)c2cc(Cl)ccc21 [Flurazepam] | 3.94^1
12 | C=C[C@H]1CN2CC[C@H]1C[C@H]2[C@H](O)c1ccnc2ccccc12 [Cinchonidine] | 2.6^1
13 | CN(C)CCCN1c2ccccc2Sc2ccc(Cl)cc21 [Chlorpromazine] | 5.27^1
14 | CCC1=C(C)CN(C(=O)NCCc2ccc(S(=O)(=O)NC(=O)N[C@H]3CC[C@H](C)CC3)cc2)C1=O [Glimepiride] | 3.97^1
15 | CC(C(=O)O)c1ccc(-c2ccccc2)c(F)c1 (stereo not shown) [Flurbiprofen] | 3.84^1
16 | COc1ccc(C(CN(C)C)C2(O)CCCCC2)cc1 (stereo not shown) [Venlafaxine] | 3.05^1

Row | SMILES | Experimental log P
17 | COc1ccc2c(c1)c(CC(=O)O)c(C)n2C(=O)c1ccc(Cl)cc1 [Indometacin] | 4.1^1
18 | CC(C)/N=c1\cc2n(-c3ccc(Cl)cc3)c3ccccc3nc-2cc1Nc1ccc(Cl)cc1 [Clofazimine] | 6.3^1
19 | COC(=O)[C@H](c1ccccc1Cl)N1CCc2sccc2C1 [Clopidogrel] | 4.52^1
20 | COc1ccc([C@@H]2CC(=O)c3c(O)cc(O)cc3O2)cc1O [Hesperetin] | 2.60^1
21 | CCCCN1CCCCC1C(=O)Nc1c(C)cccc1C (stereo not shown) [Bupivacaine] | 3.41^1
22 | COc1ccc([C@@H]2Sc3ccccc3N(CCN(C)C)C(=O)[C@@H]2OC(C)=O)cc1 [Diltiazem] | 2.84^1
23 | Cc1ccc(-c2cc(C(F)(F)F)nn2-c2ccc(S(N)(=O)=O)cc2)cc1 [Celecoxib] | 3.91^1
24 | CCc1cc2c(s1)N(C)C(=O)CN=C2c1ccccc1Cl [Clotiazepam] | 3.49^1
25 | CN[C@H]1CC[C@@H](c2ccc(Cl)c(Cl)c2)c2ccccc21 [Sertraline] | 5.17^1
26 | COc1cccc(C2(O)CCCCC2CN(C)C)c1 (stereo not shown) [Tramadol] | 2.7^1
27 | CN(C)CCC(c1ccc(Br)cc1)c1ccccn1 (stereo not shown) [Brompheniramine] | 2.88^1
28 | O=C(O)c1ccccc1Nc1cccc(C(F)(F)F)c1 [Flufenamic acid] | 5.19^1
29 | CNCCC(Oc1ccc(C(F)(F)F)cc1)c1ccccc1 (stereo not shown) [Fluoxetine] | 4.42^1
30 | O=c1cc(-c2ccccc2)oc2cc(O)cc(O)c12 [Chrysin] | 3.52^1
31 | O=c1n(CCCN2CCN(c3cccc(Cl)c3)CC2)nc2ccccn12 [Trazodone] | 2.82^1

Same assay, conditions: source footnote 5: experimental values listed on www.drugbank.ca

Row | SMILES | Experimental log P
32 | C[C@@H](Oc1cc(-c2cnn(C3CCNCC3)c2)cnc1N)c1c(Cl)ccc(F)c1Cl [crizotinib] | 1.83 ^5
33 | CO[C@@H]1[C@H](N(C)C(=O)c2ccccc2)C[C@H]2O[C@]1(C)n1c3ccccc3c3c4c(c5c6ccccc6n2c5c31)C(=O)NC4 [midostaurin] | 5.89 ^5
34 | Cc1nc(Nc2ncc(C(=O)Nc3c(C)cccc3Cl)s2)cc(N2CCN(CCO)CC2)n1 [dasatinib] | 1.8 ^5
35 | CCCS(=O)(=O)Nc1ccc(F)c(C(=O)c2c[nH]c3ncc(-c4ccc(Cl)cc4)cc23)c1F [vemurafenib] | 5.1 ^5
36 | COC(=O)c1ccc2c(c1)NC(=O)/C2=C(\Nc1ccc(N(C)C(=O)CN2CCN(C)CC2)cc1)c1ccccc1 [nintedanib] | 3.0 ^5
37 | CS(=O)(=O)CCNCc1ccc(-c2ccc3ncnc(Nc4ccc(OCc5cccc(F)c5)c(Cl)c4)c3c2)o1 [lapatinib] | 5.4 ^5
38 | CNC(=O)c1cc(Oc2ccc(NC(=O)Nc3ccc(Cl)c(C(F)(F)F)c3)cc2)ccn1 [sorafenib] | 3.8 ^5
39 | C=CC(=O)N1CCC[C@@H](n2nc(-c3ccc(Oc4ccccc4)cc3)c3c(N)ncnc32)C1 [Ibrutinib] | 3.97 ^5

Conditions: background statement

Row | SMILES | Solubility in water
40 | Cc1cn(-c2cc(NC(=O)c3ccc(C)c(Nc4nccc(-c5cccnc5)n4)c3)cc(C(F)(F)F)c2)cn1 [Nilotinib, 4-methyl-N-[3-(4-methyl-1H-imidazol-1-yl)-5-(trifluoromethyl)phenyl]-3-{[4-(pyridin-3-yl)pyrimidin-2-yl]amino}benzamide] | practically insoluble
